According to ChEMBL document CHEMBL1201862, “PubChem BioAssay data set” (2004):
Activity calls are given as the source filed them.

What was measured:
[1] = Luminescence-based cell-based high throughput dose response assay to identify activators of the DAF-12 from the parasite S. stercoralis (ssDAF-12).; format: functional
[2] = cells
[3] = molecular target: T1, Oxysterols receptor LXR-beta (Homo sapiens, UniProt P55055); assay: LXR agonists, Gal4 luciferase reporter, dose response, counter-screen for ssDAF-12 agonist project, cell-based, luminescence, HEK293, S. stercoralis campaign (AID 720737); format: functional; conditions: read-out: IC50 (the source's name)
T1 sequence (P55055 whole entry): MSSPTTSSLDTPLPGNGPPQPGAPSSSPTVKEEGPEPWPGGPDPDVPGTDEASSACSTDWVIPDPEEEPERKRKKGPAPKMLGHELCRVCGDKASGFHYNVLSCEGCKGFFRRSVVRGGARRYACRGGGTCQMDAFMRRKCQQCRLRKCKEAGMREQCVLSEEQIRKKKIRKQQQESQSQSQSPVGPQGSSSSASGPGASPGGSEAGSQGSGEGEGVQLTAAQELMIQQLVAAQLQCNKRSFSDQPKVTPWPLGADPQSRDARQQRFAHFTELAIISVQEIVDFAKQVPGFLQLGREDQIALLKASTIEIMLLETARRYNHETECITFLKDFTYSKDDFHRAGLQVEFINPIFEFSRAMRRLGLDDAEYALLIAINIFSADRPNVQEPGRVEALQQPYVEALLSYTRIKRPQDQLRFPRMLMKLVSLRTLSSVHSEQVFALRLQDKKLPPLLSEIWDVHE

[4] = molecular target: Luciferin 4-monooxygenase (Photinus pyralis, UniProt P08659); assay: Counter Screen for Luciferase-based Assay Positives. [Related pubchem assays: 620, 618, 411 ]
[5] = molecular target: T1, Oxysterols receptor LXR-beta; format: functional, cell-based
[6] = test system: HT-1080; assay: cytotoxicity in HT1080 fibrosarcoma cells, cell-based, fluorescence readout (AID 620); format: functional; conditions: Homo sapiens
[7] = molecular target: T2, Small ubiquitin-related modifier 1 (Homo sapiens, UniProt P63165); assay: inhibitors of SUMO1 partner interactions, dose response, biochemical, FRET (AID 624383); format: functional; conditions: read-out: IC50_Mean
[8] = molecular target: Photoreceptor-specific nuclear receptor (Homo sapiens, UniProt Q9Y5X4); assay: NR2E3 inverse agonists, dose response, biochemical, TR-FRET (AID 463256); format: functional
[9] = molecular target: Peroxisome proliferator-activated receptor gamma/Nuclear receptor corepressor 2 (Homo sapiens, UniProt P37231+Q9Y618); assay: Counterscreen for NR2E3 inverse agonists: TR-FRET-based biochemical high throughput dose response assay to identify inverse agonists of the interaction between peroxisome proliferator-activated receptor gamma (PPARg) and nuclear receptor co-repressor 2 (NCOR2).; format: functional
[10] = molecular target: T2, Small ubiquitin-related modifier 1; assay: inhibitors of SUMO1 peptide binding, dose response, biochemical, fluorescence polarization, uHTS hits (AID 624382); format: functional; conditions: read-out: IC50_Mean
[11] = molecular target: E3 ubiquitin-protein ligase UHRF1 (Homo sapiens, UniProt Q96T88); assay: Counterscreen for inhibitors of 5-meCpG-binding domain protein 2 (MBD2): TRFRET-based biochemical high throughput dose response assay to identify inhibitors of binding of ubiquitin-like with PHD and ring finger domains 1 (UHRF1) to methylated oligonucleotide.
[12] = cytotoxicity in OVCAR4 cells, dose response, cytotoxicity control for PAX8 inhibitor project, cell-based, plate reader, dry powder, SA11 (AID 743150); format: functional; conditions: OVCAR-4
[13] = cytotoxicity in COV362 ovarian cancer cells, dose response, cytotoxicity control for PAX8 inhibitor project, cell-based, plate reader, dry powder, SA12 (AID 743144); format: functional
[14] = P. falciparum 3D7-ScDHODH growth inhibitors, dose response, SYBR Green, dry powder samples (AID 1159570); format: functional, cell-based;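 note: parasite growth measured after 72 hours of compound exposure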
[15] = NIH:OVCAR-3 ovarian cancer cell cytotoxicity, dose response, PAX8 inhibitor project, plate reader, dry powder samples (AID 743044); format: functional, cell-based
[16] = PAX5 activity inhibitors, dose response, selectivity assay for PAX8 inhibitor project, cell-based, plate reader, dry powder samples (AID 743047); format: functional;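 note: HEK293 cells carrying a Pax5 driven CD19 promoter luciferase reporter; potency of inhibitors that lower reporter luminescence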
[17] = P. falciparum Dd2 growth inhibitors, dose response, SYBR Green, cherry-picked samples (AID 1159567); format: functional, cell-based
[18] = PAX2 cell-based inhibition, dose response, selectivity assay for PAX8 inhibitor project, plate reader, dry powder samples (AID 743048); format: functional;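 note: HEK293 cells carrying a WT1 promoter luciferase reporter driven by expressed Pax2; potency is for inhibition of Pax2 driven reporter signal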
[19] = HepG2 cell cytotoxicity, dose response, cytotoxicity control, cherry-picked samples (AID 1159577); format: functional, cell-based
[20] = molecular target: Paired box protein Pax-8 (Homo sapiens, UniProt Q06710); assay: inhibitors of PAX8-driven TPO luciferase reporter, dose response, RMG-I cells, cherry-pick (AID 687027); format: functional, cell-based;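 note: luciferase reporter driven by Pax8 target thyroperoxidase promoter measured by SteadyGlo luminescence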
[21] = cytotoxicity in OV-90 ovarian cancer cells, dose response, PAX8 inhibitor project, cell-based, plate reader, dry powder, SA8 (AID 743149); format: functional
[22] = cytotoxicity dependent on PAX8, dose response, cell-based, plate reader, dry powder (AID 743049); format: functional
[23] = P. falciparum ATP4 D1247Y mutant growth inhibitors, dose response, NITD609-resistant line, SYBR Green, dry powder (AID 1159571); format: functional, cell-based;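 note: parasites synchronized at ring stage by sorbitol before testing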
[24] = P. falciparum Dd2 growth inhibitors, dose response, SYBR Green, dry powder samples (AID 1159566); format: functional, cell-based;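 note: potency for growth inhibition with lower SYBR green DNA signal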
[25] = cytotoxicity in COV434 cells, dose response, cytotoxicity control for PAX8 inhibitor project, cell-based, plate reader, dry powder, SA7 (AID 743145); format: functional
[26] = HEK293T cell cytotoxicity, dose response, cytotoxicity control, CellTiter-Glo luminescence, dry powder, set 6 (AID 651949); format: functional, cell-based; conditions: HEK293
[27] = inhibitors of non-replicating M. tuberculosis, dose response, luciferase, dry powder (AID 651619); format: functional; conditions: Mycobacterium tuberculosis
[28] = inhibitors of non-replicating M. tuberculosis, dose response, luciferase, dry powder (AID 651620); format: functional; conditions: Mycobacterium tuberculosis
[29] = cytotoxicity in HeLa cells, dose response, cytotoxicity control, cell-based, plate reader, dry powder (AID 651946); format: functional
[30] = molecular target: T3, Fibrinogen beta chain (Homo sapiens, UniProt P02675); assay: Fluorescence polarization-based biochemical high throughput dose response assay to identify inhibitors that disrupt the binding of a cyclic peptide (Tn7) to the fibrin proteolytic product D-Dimer and fragment E complex [DD(E )].
[31] = molecular target: T4, Protein skinhead-1 (Caenorhabditis elegans, UniProt P34707); format: functional
T4 sequence (P34707 whole entry): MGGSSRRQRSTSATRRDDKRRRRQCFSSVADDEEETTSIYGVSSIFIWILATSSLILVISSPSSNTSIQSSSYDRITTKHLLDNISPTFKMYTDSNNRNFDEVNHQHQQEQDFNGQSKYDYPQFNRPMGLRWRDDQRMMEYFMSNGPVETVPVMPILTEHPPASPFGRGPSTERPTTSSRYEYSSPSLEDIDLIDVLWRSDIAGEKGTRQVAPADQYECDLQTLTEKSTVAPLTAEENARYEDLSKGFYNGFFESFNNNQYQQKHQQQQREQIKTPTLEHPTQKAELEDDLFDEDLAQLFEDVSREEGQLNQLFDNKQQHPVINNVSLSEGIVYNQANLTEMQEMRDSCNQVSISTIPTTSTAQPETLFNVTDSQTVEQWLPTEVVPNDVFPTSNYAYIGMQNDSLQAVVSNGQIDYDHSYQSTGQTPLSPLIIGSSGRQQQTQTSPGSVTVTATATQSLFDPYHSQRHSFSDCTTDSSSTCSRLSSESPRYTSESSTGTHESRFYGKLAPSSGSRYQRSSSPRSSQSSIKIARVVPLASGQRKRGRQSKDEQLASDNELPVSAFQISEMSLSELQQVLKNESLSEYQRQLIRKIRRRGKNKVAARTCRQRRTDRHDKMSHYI

[32] = molecular target: T3, Fibrinogen beta chain; assay: Fluorescence polarization-based biochemical high throughput dose response assay to identify inhibitors that disrupt the binding of a cyclic peptide (Tn6) to the fibrin proteolytic product D-Dimer and fragment E complex [DD(E )].
[33] = molecular target: NAD-dependent protein deacylase sirtuin-5, mitochondrial (Homo sapiens, UniProt Q9NXA8); assay: SIRT5 deacylase inhibitors, dose response, biochemical, fluorescence imaging, cherry-pick, set 6 (AID 720597)

T2 sequence (P63165 whole entry): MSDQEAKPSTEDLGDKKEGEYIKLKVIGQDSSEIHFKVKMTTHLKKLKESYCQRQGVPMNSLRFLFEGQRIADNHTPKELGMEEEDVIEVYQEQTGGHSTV
T3 sequence (P02675 whole entry, the tested form may be a part): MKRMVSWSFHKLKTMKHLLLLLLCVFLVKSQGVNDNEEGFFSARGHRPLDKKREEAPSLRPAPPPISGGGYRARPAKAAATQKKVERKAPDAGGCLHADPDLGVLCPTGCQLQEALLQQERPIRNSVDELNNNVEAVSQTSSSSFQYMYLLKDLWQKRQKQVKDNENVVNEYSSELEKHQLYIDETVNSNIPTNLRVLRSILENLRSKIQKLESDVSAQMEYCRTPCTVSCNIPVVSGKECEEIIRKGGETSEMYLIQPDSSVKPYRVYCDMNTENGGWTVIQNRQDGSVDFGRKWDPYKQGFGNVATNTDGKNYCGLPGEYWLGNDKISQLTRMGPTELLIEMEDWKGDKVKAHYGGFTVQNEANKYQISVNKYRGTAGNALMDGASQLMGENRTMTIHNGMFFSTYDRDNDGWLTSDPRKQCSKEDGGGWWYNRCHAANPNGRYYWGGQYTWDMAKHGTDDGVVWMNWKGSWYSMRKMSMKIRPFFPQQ
Sequence of Peroxisome proliferator-activated receptor gamma/Nuclear receptor corepressor 2 (P37231 whole entry): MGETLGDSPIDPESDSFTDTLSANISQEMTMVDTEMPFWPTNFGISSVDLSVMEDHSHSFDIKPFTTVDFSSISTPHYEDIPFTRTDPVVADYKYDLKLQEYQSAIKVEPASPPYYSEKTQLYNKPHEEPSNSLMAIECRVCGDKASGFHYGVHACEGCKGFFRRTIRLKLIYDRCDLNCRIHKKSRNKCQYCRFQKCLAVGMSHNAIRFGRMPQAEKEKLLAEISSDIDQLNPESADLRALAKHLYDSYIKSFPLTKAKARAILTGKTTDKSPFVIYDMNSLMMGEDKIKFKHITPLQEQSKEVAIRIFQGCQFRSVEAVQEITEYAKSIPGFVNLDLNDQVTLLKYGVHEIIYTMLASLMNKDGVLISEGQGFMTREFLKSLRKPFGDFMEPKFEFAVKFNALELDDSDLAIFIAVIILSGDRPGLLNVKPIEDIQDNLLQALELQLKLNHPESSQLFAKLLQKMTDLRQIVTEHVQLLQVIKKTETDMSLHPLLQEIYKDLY
Sequence of Peroxisome proliferator-activated receptor gamma/Nuclear receptor corepressor 2 (Q9Y618 whole entry): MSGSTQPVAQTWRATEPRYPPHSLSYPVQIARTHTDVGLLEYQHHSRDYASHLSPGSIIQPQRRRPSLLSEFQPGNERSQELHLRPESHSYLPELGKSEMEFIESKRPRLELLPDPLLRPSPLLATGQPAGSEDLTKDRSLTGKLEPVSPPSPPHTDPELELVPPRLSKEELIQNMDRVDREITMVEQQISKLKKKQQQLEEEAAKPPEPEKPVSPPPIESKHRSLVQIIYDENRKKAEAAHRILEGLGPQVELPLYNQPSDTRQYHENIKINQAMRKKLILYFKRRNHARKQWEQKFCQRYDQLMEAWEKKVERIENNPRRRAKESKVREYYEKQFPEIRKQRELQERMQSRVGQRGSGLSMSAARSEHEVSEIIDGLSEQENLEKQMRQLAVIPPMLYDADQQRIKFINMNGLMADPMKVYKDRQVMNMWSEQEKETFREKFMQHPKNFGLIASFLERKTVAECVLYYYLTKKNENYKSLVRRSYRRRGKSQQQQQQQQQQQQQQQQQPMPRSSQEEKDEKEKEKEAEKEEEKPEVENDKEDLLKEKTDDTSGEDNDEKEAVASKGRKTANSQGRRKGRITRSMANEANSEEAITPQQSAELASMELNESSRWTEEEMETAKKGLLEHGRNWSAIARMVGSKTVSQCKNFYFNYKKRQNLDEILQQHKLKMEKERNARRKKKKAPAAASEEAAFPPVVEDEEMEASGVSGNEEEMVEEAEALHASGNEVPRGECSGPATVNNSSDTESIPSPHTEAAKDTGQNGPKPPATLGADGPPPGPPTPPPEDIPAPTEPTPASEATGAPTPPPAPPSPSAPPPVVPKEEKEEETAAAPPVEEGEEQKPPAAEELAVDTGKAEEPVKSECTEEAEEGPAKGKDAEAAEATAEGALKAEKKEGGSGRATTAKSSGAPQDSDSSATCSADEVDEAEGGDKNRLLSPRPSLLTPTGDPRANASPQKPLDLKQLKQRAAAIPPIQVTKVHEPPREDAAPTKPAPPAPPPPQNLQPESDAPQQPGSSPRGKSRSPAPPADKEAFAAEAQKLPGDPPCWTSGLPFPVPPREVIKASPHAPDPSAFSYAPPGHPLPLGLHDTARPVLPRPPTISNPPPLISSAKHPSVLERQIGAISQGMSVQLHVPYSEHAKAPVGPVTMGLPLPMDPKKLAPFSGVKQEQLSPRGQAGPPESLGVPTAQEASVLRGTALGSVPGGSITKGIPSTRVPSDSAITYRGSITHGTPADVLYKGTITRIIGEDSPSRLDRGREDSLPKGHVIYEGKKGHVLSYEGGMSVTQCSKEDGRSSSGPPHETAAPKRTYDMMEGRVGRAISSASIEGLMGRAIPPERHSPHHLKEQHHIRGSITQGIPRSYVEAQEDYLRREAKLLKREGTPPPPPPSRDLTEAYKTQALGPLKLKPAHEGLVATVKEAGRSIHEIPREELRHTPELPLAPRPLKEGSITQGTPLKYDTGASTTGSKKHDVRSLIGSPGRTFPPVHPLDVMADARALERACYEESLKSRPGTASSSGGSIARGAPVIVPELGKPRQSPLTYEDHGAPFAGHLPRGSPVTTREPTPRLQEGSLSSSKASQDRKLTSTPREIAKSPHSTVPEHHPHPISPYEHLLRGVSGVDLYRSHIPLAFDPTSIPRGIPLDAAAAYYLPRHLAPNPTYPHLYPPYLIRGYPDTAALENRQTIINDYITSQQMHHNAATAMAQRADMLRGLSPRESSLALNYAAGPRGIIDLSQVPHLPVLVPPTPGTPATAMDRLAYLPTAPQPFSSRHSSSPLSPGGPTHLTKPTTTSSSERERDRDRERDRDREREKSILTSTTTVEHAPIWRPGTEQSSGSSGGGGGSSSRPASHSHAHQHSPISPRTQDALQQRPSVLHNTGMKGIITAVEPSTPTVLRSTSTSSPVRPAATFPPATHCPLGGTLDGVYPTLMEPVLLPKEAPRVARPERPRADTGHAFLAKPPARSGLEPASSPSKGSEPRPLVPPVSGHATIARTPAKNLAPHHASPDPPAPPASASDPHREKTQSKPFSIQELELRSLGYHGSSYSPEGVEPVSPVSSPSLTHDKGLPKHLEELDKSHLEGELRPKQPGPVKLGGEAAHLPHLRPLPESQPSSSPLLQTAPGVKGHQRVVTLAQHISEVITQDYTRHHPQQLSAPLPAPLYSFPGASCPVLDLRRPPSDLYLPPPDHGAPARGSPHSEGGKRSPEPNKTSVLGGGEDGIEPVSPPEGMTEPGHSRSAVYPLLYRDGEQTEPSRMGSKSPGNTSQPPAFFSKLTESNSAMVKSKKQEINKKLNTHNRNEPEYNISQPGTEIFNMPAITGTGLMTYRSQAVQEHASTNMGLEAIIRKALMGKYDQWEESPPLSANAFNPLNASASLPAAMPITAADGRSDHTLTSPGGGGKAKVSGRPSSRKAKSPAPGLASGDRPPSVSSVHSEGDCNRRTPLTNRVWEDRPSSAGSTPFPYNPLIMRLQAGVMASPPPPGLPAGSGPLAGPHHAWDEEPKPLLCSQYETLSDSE
Sequence of Photoreceptor-specific nuclear receptor (Q9Y5X4 whole entry): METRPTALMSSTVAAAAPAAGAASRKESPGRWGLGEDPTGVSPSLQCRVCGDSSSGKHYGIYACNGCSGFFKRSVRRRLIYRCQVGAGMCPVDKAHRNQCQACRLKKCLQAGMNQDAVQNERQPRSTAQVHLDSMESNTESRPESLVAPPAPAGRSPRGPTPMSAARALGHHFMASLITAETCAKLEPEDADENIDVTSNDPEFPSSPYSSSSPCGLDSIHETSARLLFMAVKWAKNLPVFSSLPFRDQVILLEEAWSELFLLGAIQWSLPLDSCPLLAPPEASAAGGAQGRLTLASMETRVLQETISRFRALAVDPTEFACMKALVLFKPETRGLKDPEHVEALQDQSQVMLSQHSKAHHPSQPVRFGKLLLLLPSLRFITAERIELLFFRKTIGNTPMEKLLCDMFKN
Sequence of Paired box protein Pax-8 (Q06710 whole entry): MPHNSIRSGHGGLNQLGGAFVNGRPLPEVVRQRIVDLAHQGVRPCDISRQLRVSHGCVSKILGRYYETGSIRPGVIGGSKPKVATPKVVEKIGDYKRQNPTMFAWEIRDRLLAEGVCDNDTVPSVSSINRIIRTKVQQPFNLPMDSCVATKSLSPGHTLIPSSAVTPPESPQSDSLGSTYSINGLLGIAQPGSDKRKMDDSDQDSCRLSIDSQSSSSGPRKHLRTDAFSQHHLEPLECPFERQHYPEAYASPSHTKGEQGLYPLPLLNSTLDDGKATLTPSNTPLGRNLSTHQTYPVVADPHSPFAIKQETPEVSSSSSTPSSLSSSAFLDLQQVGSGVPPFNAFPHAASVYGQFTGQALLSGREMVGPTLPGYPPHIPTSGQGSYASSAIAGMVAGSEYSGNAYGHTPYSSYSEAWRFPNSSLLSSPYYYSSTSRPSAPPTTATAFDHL
Sequence of Luciferin 4-monooxygenase (P08659 whole entry): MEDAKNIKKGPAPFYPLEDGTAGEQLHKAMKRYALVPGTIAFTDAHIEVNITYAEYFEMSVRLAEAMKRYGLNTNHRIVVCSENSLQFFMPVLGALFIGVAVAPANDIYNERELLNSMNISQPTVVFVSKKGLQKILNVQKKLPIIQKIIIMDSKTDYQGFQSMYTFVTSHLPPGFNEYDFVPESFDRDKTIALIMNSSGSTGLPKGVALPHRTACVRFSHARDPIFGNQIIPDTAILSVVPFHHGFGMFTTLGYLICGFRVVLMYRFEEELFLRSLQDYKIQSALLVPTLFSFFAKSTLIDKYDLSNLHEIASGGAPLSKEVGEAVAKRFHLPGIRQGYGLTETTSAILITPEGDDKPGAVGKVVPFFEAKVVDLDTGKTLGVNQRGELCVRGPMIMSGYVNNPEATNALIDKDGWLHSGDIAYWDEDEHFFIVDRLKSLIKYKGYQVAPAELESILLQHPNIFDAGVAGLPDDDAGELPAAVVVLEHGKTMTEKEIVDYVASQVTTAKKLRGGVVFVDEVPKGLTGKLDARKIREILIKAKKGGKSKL

O=C1c2ccccc2C(=O)C1c1nccc2ccccc12
active: EC50 [4] 1.3 µM
> 50 µM (not active): EC50 [6]
inactive: IC50 [1] > 67.5 µM | EC50 [2] > 67.5 µM | EC50 [3] > 67.5 µM | EC50 [5] > 67.5 µM

N#CCC(=O)Nc1ccc(C(=O)OCC(=O)c2ccc3c(c2)NC(=O)CO3)cc1
inactive: IC50 [10] > 66.6 µM | IC50 [11] > 43.8 µM
active: IC50 [7] 10.1 µM | IC50 [8] 4.46 µM | IC50 [9] 4.39 µM

N#C[C@H]1[C@@H](c2ccc(C#Cc3ccccc3F)cc2)[C@@H](CO)N1C(=O)C1CCCCC1
inactive: AC50 [19] > 39 µM
active: AC50 [12] 3.01 µM | AC50 [13] 36.2 µM | AC50 [14] 0.8 µM | AC50 [15] 16.1 µM | AC50 [16] 13 µM | AC50 [17] 1.09 µM | AC50 [18] 14.2 µM | AC50 [20] 3.09 µM | AC50 [21] 27.7 µM | AC50 [22] 7.86 µM | AC50 [23] 1.23 µM | AC50 [24] 0.584 µM | AC50 [25] 20.3 µM

Fc1ccc(Cn2cc(CSc3nnc(-c4ccc(Cl)cc4)o3)nn2)cc1
active: IC90 [27] 1 µM | IC90 [28] 1 µM
inactive: AC50 [26] > 52 µM | AC50 [29] > 52 µM

c1ccc2c(c1)CCN(C1=Nc3cccc4cccc1c34)C2
inactive: IC50 [30] > 83.3 µM | IC50 [31] > 100 µM | IC50 [32] 46.1 µM

C[C@H](CO)N1C[C@H](C)[C@H](CN(C)C(=O)Cc2ccccc2)Oc2ncc(C3=CCCCC3)cc2C1=O
inactive: AC50 [33] > 30 µM
